Data: patent US8071575B2, “Methods and compounds for the targeted delivery of agents to bone for interaction therewith” (priority 2007, dated 2011)

Key:
[1] = Hydroxyapatite (HA) Binding Assay; conditions: 10^−5 M analyte, 50 mM Tris-HCl pH 7.4, 1% DMSO; adjusted such that tetracycline = 100
Description: A Hydroxyapatite (HA) Binding Assay is used to determine whether compounds have an affinity for bone. Compounds of the presently-disclosed subject matter having a Bone Targeting Portion (RT) are studied using the HA Binding Assay. A 10^−3 M solution of each analyte was made in 100% dimethylsulfoxide (DMSO). A 100 fold dilution was then made to form a 10^−5 M solution in 50 mM Tris-HCl buffer, pH 7.4, 1% DMSO. Tetracycline was used as a reference analyte and approximately 50% was adsorbed to HA at the concentration of 10^−5 M. The HA slurry was 0.5 g/100 mL 50 mM Tris-HCl buffer, 1% DMSO.
For each analyte, two samples were prepared. For one sample, 1 mL of 10^−5 M analyte and 100 μL 50 mM Tris-HCl buffer, 1% DMSO was pipetted into a microcentrifuge tube. For the second sample, 1 mL of 10^−5 M analyte and 100 μL of the HA slurry was pipetted into a microcentrifuge tube. The samples were mixed gently by inversion for 4 minutes and then centrifuged at 12,000 g for 3 minutes to sediment the HA contained in those samples. The supernatant was transferred to another microcentrifuge tube.
An electronic spectral scan (ultraviolet-visible) from 220-520 nm was obtained for each analyte using a Varian Cary 300 Bio Scan. The blank was 50 mM Tris-HCl buffer, 1% DMSO. The wavelength of maximum absorbance (λmax) was determined, and the extinction coefficient (ε) was calculated using the Beer-Lambert Law.
The absorbance of the samples incubated with HA was measured at λmax, and the molar concentration of the analyte was then determined using the Beer-Lambert Law and the previously calculated extinction coefficient. The fraction adsorbed to HA for each sample was subsequently calculated.

[2] = system: OVX rats; assay: Quantitative determination of lipid metabolism (total cholesterol, HDL, LDL) in rat serum; type: in vivo, Sprague-Dawley female rats
Description: (§1) Animals. Six month old, bilaterally ovariectomized (OVX) or sham operated Sprague-Dawley female rats (Harlan Laboratories, Indianapolis, Ind.) were maintained at the University of Louisville Research Resources Center at 22° C. with a 12-h light/dark cycle and ad libitum access to tap water and rodent chow (Purina Laboratory Rodent Diet 5001). All animal procedures were approved by the Institutional Animal Care and Use Committee, which is certified by the American Association for Accreditation of Laboratory Animal Care.
(§2) In vivo experiments were conducted in order to investigate the efficacy of compounds of the presently-disclosed subject matter. In all of the experiments, OVX and sham operated rats were randomly divided into groups of 5-7 animals. In all of the studies experimental groups included: i) Sham-operated control (euthanized six weeks post surgery as a pretreatment control), ii) OVX control (euthanized six weeks post surgery as a pretreatment control), iii) Sham control receiving vehicle, iv) OVX control receiving vehicle, v) OVX receiving 17-ethinyl estradiol (equimolar concentration with a selected test compound), vi) OVX receiving alendronate (1.6 mg/kg), and vii) OVX receiving parathyroid hormone 1-34 (PTH) ([…]). 17-ethinyl estradiol (17 EE) is a free estrogenic agent known to be orally active, and can serve as an example of an anti-catabolic agent. Alendronate (Alen) is a bisphosphonate that is currently used to treat osteoporosis (e.g., Fosamax®, Merck & Co., Inc,), and can serve as an example of an anti-catabolic agent. Parathyroid hormone 1-34 (PTH) is an agent that can serve as an example of an anabolic agent. All compounds and vehicle (1% DMSO in corn oil) were administered three times per week orally by gavage except for PTH which was administered via a subcutaneous injection in a volume of 0.5 ml/kg body mass thrice per week. Compound administration was initiated 6 weeks following surgery and lasted for 6 weeks (18 doses total).
(§3) Following 6 weeks of treatment, blood was obtained from each animal via cardiac puncture following an overnight fast and animals were subsequently euthanized via carbon dioxide asphyxiation. Blood was centrifuged immediately and the obtained serum samples were aliquoted and stored at −70° C. prior to analysis. Uteri were removed and fresh weights were obtained. Uterine masses were normalized to body mass at the end of the experiment. The left and right femora and left and right tibiae were subsequently collected from each animal, cleaned of soft tissue, and stored in saline at 4° C. prior to analysis.
Quantitative Determination of Lipid Metabolism (Total Cholesterol HDL, and LDL) in Rat Serum. Total cholesterol, high-density lipoprotein (HDL), and low-density lipoprotein (LDL) were quantitatively determined in the serum of rats in order to evaluate the extraosseous effects of estrogen treatment on lipid metabolism. Commercially available kits from Wako Diagnostics (Richmond, Va.) were used for the evaluations as recommended by the manufacturer.

[3] = system: OVX rats; assay: Femoral density via Archimedes' Principle (whole bone); type: in vivo, Sprague-Dawley female rats; conditions: OVX rats, three times per week for 6 weeks
Description: as §1, §2
(§4) Compounds of the presently-disclosed subject matter were orally administered to OVX rats at various doses. As indicated above all BTE's were administered three times per week for 6 weeks.
as §3
Femoral Density via Archimedes' Principle. Right femora were submerged in distilled water and fully hydrated under a vacuum for 1 hr. Subsequently, the mass of each hydrated femur was obtained in air and when submerged in water. Densities were determined using Archimedes' Principle according to the following formula: density=[mass of hydrated femur/(mass of hydrated femur−mass of hydrated femur submerged in water)]×density of distilled water at a given temperature (See Keenan, et al. Comparison of bone density measurement techniques: DXA and Archimedes' principle. J Bone Miner Res 1997; 12:1903-7.). The obtained density measurements were associated with whole bone.

[4] = system: OVX rats; assay: Bone mechanical competence indentation test; type: in vivo, Sprague-Dawley female rats; conditions: present-tense example, no data or figure
Description: as §1, §2, §4, §3
Bone Mechanical Competence Indentation Test. After sacrifice, the left tibiae were trimmed to expose the cancellous bone of the proximal tibial metaphysis and an indentation test was performed by advancing a flat-tipped cylindrical post (1.5 mm diameter) axially into the cut surface to measure the compressive strength of the cancellous bone structure.

[5] = system: ICR Swiss mice; assay: Stimulation of periosteal bone formation in a mouse calvarial injection model; type: in vivo; conditions: present-tense example, no data or figure
Description: Stimulation of Periosteal Bone Formation in a Mouse Calvarial Injection Model. The anabolic (bone formation) of compounds of the presently-disclosed subject matter are evaluated in the mouse calvarial injection model. Briefly, 4-week-old ICR Swiss mice are injected subcutaneously over the surface of the calvariae with compounds of the presently-disclosed subject matter at concentrations of 0, 1, 3, and 10 mg/kg/day for 5 days (twice a day). Microtubule inhibitor TN-16 (5 mg/kg/day for 2 days, twice a day) are used as a positive control. Mice are sacrificed two weeks after the injections are completed. Dissected calvarial samples are fixed in 10% phosphate-buffered formalin for 2 days, decalcified in 10% EDTA for 2 weeks and then embedded in paraffin. Histological sections are cut and stained with H&E and orange G. New woven bone formation (new bone area) is quantified by histomorphometry using the OsteoMeasure system (OsteoMetrics Inc., Atlanta, Ga.).

Compound | Binding Index (binding to hydroxyapatite) [1] | lipid metabolism (total cholesterol, HDL, LDL in serum) ([2]; present-tense example, no data or figure) | whole bone density (right femora) ([3]; oral 3000 μg/kg) | bone strength (indentation test) [4] | new bone area (calvarial injection model) [5] | lipid metabolism (total cholesterol, HDL, LDL in serum) ([2]; rat, in vivo) | whole bone density (right femora) ([3]; oral 10, 100, or 1000 μg/kg)
COc1ccc(NC(=O)CCC(=O)OC2CCC3C4CCC5=CC(=O)CCC5(C)C4CCC23C)c(O)c1C(N)=O (stereo not shown) [Formula 33] | 140 | limited or no effect | higher than that of the OVX animals | increase bone strength | increase new bone area |  | 
COc1ccc(NC(=O)COCCOCCNC(=O)CCOC2CCC3C4CCc5cc(O)ccc5C4CCC23C)c(O)c1C(N)=O (stereo not shown) [Formula 123] | 160 |  |  | increase bone strength | affect new bone area | limited or no effect | in the same ranges as those animals receiving 17-ethinyl estradiol (17 EE), Alendronate (Alen), or Parathyroid hormone 1-34 (PTH)
